Measured values as given in PubChem BioAssay AID1259407 (Chemical Carcinogenesis Research Information System (CCRIS), 2018).
Calls of active or inactive are those of the source. How the calls were made is not given here.

System: CCRIS mutagenicity, Ames/micronucleus/aberration tests
Assay: CCRIS mutagenicity studies
[1] = Test System: AMES SALMONELLA TYPHIMURIUM, Strain/Indicator: TA98, Metabolic Activation: NONE, Method: PREINCUBATION
[2] = Test System: AMES SALMONELLA TYPHIMURIUM, Strain/Indicator: TA100, Metabolic Activation: NONE, Method: PREINCUBATION
[3] = Test System: AMES SALMONELLA TYPHIMURIUM, Strain/Indicator: TA97, Metabolic Activation: NONE, Method: STANDARD PLATE
[4] = Test System: AMES SALMONELLA TYPHIMURIUM, Strain/Indicator: TA97, Metabolic Activation: RAT, LIVER, S-9, AROCLOR 1254, Method: STANDARD PLATE
[5] = Test System: AMES SALMONELLA TYPHIMURIUM, Strain/Indicator: TA98, Metabolic Activation: NONE, Method: STANDARD PLATE
[6] = Test System: AMES SALMONELLA TYPHIMURIUM, Strain/Indicator: TA98, Metabolic Activation: RAT, LIVER, S-9, AROCLOR 1254, Method: STANDARD PLATE
[7] = Test System: AMES SALMONELLA TYPHIMURIUM, Strain/Indicator: TA100, Metabolic Activation: NONE, Method: STANDARD PLATE
[8] = Test System: AMES SALMONELLA TYPHIMURIUM, Strain/Indicator: TA100, Metabolic Activation: RAT, LIVER, S-9, AROCLOR 1254, Method: STANDARD PLATE
[9] = Test System: AMES SALMONELLA TYPHIMURIUM, Strain/Indicator: TA102, Metabolic Activation: NONE, Method: STANDARD PLATE
[10] = Test System: AMES SALMONELLA TYPHIMURIUM, Strain/Indicator: TA102, Metabolic Activation: RAT, LIVER, S-9, AROCLOR 1254, Method: STANDARD PLATE
[11] = Test System: AMES SALMONELLA TYPHIMURIUM, Strain/Indicator: TA1537, Metabolic Activation: RAT, LIVER, S-9, AROCLOR 1254, Method: STANDARD PLATE
[12] = Test System: AMES SALMONELLA TYPHIMURIUM, Strain/Indicator: TA1535, Metabolic Activation: NONE, Method: STANDARD PLATE
[13] = Test System: AMES SALMONELLA TYPHIMURIUM, Strain/Indicator: TA1535, Metabolic Activation: RAT, LIVER, S-9, AROCLOR 1254, Method: STANDARD PLATE
[14] = Test System: AMES SALMONELLA TYPHIMURIUM, Strain/Indicator: TA1538, Metabolic Activation: NONE, Method: STANDARD PLATE
[15] = Test System: AMES SALMONELLA TYPHIMURIUM, Strain/Indicator: TA1538, Metabolic Activation: RAT, LIVER, S-9, AROCLOR 1254, Method: STANDARD PLATE

Measured: mutagenic call

COc1c(O)cc2c3c1-c1ccccc1C[C@H]3N(C)CC2
active: Test System: AMES SALMONELLA TYPHIMURIUM, Strain/Indicator: TA98, Metabolic Activation: RAT, LIVER, S-9, PHENOBARBITAL AND BETA-NAPHTHOFLAVONE, Method: PREINCUBATION active; positive | Test System: AMES SALMONELLA TYPHIMURIUM, Strain/Indicator: TA100, Metabolic Activation: RAT, LIVER, S-9, PHENOBARBITAL AND BETA-NAPHTHOFLAVONE, Method: PREINCUBATION active; positive

Cc1ccc2nc3ccc(C)cc3c(N)c2c1
active: Test System: AMES SALMONELLA TYPHIMURIUM, Strain/Indicator: TA1537, Metabolic Activation: NONE, Method: PREINCUBATION active; positive

CC(C)(C)CC(C)(C)c1ccc(OCCO)cc1
inactive: Test System: MOUSE LYMPHOMA, Strain/Indicator: L5178Y (TK+/TK-), Metabolic Activation: NONE, Method: SUSPENSION/PLATE inactive; negative

NNc1nncc2ccncc12
active: [1] active; positive | Test System: AMES SALMONELLA TYPHIMURIUM, Strain/Indicator: TA98, Metabolic Activation: RAT, LIVER, S-9, PCB, Method: PREINCUBATION active; positive | [2] active; positive | Test System: AMES SALMONELLA TYPHIMURIUM, Strain/Indicator: TA100, Metabolic Activation: RAT, LIVER, S-9, PCB, Method: PREINCUBATION active; positive

Cc1cc(Cl)ccc1OCCCC(=O)O
inactive: [3] inactive; negative | [4] inactive; negative | [5] inactive; negative | [6] inactive; negative | [7] inactive; negative | [8] inactive; negative | [9] inactive; negative | [10] inactive; negative

O=C(/C=C/c1ccc(O)cc1)c1ccccc1
inactive: [5] inactive; negative | [6] inactive; negative | [7] inactive; negative | [8] inactive; negative

C=CCC
inactive: Test System: AMES SALMONELLA TYPHIMURIUM, Strain/Indicator: TA98, Metabolic Activation: NONE, Method: GAS EXPOSURE inactive; negative | Test System: AMES SALMONELLA TYPHIMURIUM, Strain/Indicator: TA98, Metabolic Activation: RAT LIVER S-9, PHENOBARBITAL AND BETA-NAPHTHOFLAVONE (40%), Method: GAS EXPOSURE inactive; negative | Test System: AMES SALMONELLA TYPHIMURIUM, Strain/Indicator: TA100, Metabolic Activation: NONE, Method: GAS EXPOSURE inactive; negative | Test System: AMES SALMONELLA TYPHIMURIUM, Strain/Indicator: TA100, Metabolic Activation: RAT LIVER S-9, PHENOBARBITAL AND BETA-NAPHTHOFLAVONE (40%), Method: GAS EXPOSURE inactive; negative | Test System: AMES SALMONELLA TYPHIMURIUM, Strain/Indicator: TA1535, Metabolic Activation: NONE, Method: GAS EXPOSURE inactive; negative | Test System: AMES SALMONELLA TYPHIMURIUM, Strain/Indicator: TA1535, Metabolic Activation: RAT LIVER S-9, PHENOBARBITAL AND BETA-NAPHTHOFLAVONE (40%), Method: GAS EXPOSURE inactive; negative | Test System: AMES SALMONELLA TYPHIMURIUM, Strain/Indicator: TA1537, Metabolic Activation: NONE, Method: GAS EXPOSURE inactive; negative | Test System: AMES SALMONELLA TYPHIMURIUM, Strain/Indicator: TA1537, Metabolic Activation: RAT LIVER S-9, PHENOBARBITAL AND BETA-NAPHTHOFLAVONE (40%), Method: GAS EXPOSURE inactive; negative | Test System: E.COLI, Strain/Indicator: WP2UVRA, Metabolic Activation: NONE, Method: GAS EXPOSURE inactive; negative | Test System: E.COLI, Strain/Indicator: WP2UVRA, Metabolic Activation: RAT LIVER S-9, PHENOBARBITAL AND BETA-NAPHTHOFLAVONE (40%), Method: GAS EXPOSURE inactive; negative

CC1=C[C@@H]2c3cccc4[nH]cc(c34)C[C@H]2N(C)C1
active: [6] active; positive | [8] active; positive
inactive: [7] inactive; negative | [11] inactive; negative

Nc1ccc(/C=C/c2ccc(N)cc2)cc1
inactive: Test System: AMES SALMONELLA TYPHIMURIUM, Strain/Indicator: TA98(1,8-DNP6), Metabolic Activation: NONE, Method: STANDARD PLATE inactive; negative | Test System: AMES SALMONELLA TYPHIMURIUM, Strain/Indicator: TA98(1,8-DNP6), Metabolic Activation: S-9, Method: STANDARD PLATE inactive; negative | [5] inactive; negative | [7] inactive; negative | [8] inactive; negative | Test System: AMES SALMONELLA TYPHIMURIUM, Strain/Indicator: TA100, Metabolic Activation: S-9, Method: STANDARD PLATE inactive; negative
active: [6] active; positive | Test System: AMES SALMONELLA TYPHIMURIUM, Strain/Indicator: TA98, Metabolic Activation: S-9, Method: STANDARD PLATE active; positive

CC(=O)[O][Sn]([c]1ccccc1)([c]1ccccc1)[c]1ccccc1
active: End Point: IN VIVO MICRONUCLEUS, Test System: BONE MARROW POLYCHROMATIC ERYTHROCYTES, Species: MOUSE, Strain/Sex: SWISS/MALE, FEMALE, Route: IP 2X IN AQUEOUS SUSPENSION WITHIN 24 HR active; positive

c1ccc(COc2cccc3cccnc23)cc1
inactive: Test System: AMES SALMONELLA TYPHIMURIUM, Strain/Indicator: TA100, Metabolic Activation: S-9, Method: PREINCUBATION inactive; negative

O=[N+]([O-])c1cc2c(cc1Cl)Oc1cc(Cl)c(Cl)cc1O2
active: [5] active; positive | Test System: AMES SALMONELLA TYPHIMURIUM, Strain/Indicator: TA98, Metabolic Activation: RAT, LIVER, S-9, AROCLOR, Method: STANDARD PLATE active; positive | [7] active; positive | Test System: AMES SALMONELLA TYPHIMURIUM, Strain/Indicator: TA100, Metabolic Activation: RAT, LIVER, S-9, AROCLOR, Method: STANDARD PLATE active; positive

CC(=O)Nc1ccnc2ccccc12
inactive: [1] inactive; negative | Test System: AMES SALMONELLA TYPHIMURIUM, Strain/Indicator: TA98, Metabolic Activation: RAT, LIVER, S-9, KANECHLOR 500, Method: PREINCUBATION inactive; negative | [2] inactive; negative | Test System: AMES SALMONELLA TYPHIMURIUM, Strain/Indicator: TA100, Metabolic Activation: RAT, LIVER, S-9, KANECHLOR 500, Method: PREINCUBATION inactive; negative

Nc1cc([N+](=O)[O-])c(N)cc1Cl
active: [5] active; positive | [6] active; positive | [14] active; positive | [15] active; positive
inactive: [7] inactive; negative | [8] inactive; negative | [12] inactive; negative | [13] inactive; negative | Test System: AMES SALMONELLA TYPHIMURIUM, Strain/Indicator: TA1537, Metabolic Activation: NONE, Method: STANDARD PLATE inactive; negative | [11] inactive; negative

COc1cc(-c2oc3cc(O)cc(O)c3c(=O)c2O)ccc1O
inactive: [3] inactive; negative | [4] inactive; negative | [5] inactive; negative | [6] inactive; negative | [7] inactive; negative | [8] inactive; negative | [9] inactive; negative | [10] inactive; negative | [12] inactive; negative | [13] inactive; negative | [14] inactive; negative | [15] inactive; negative
